Measurements published in patent publication US7662863B2, “Therapeutic agent for the use in reducing alcohol intoxication and reducing or eliminating the negative side effects associated with alcohol ingestion” (priority 2003, dated 2010).

Tests used:
[1] = Blood alcohol level (BAC test strip) in human subjects after alcohol consumption, glucarate versus placebo; format: in vivo; details: twenty subjects
From the text: (§1) Twenty subjects, currently taking no form of d-glucarate, were recruited for the evaluation. On two separate occasions (at least 5 days apart) the subjects voluntarily consumed alcoholic beverages. The amount ingested was at their discretion, however it was the exact same about on both occasions and roughly over the same duration (+/−½ hour).
(§2) On the first occasion, the subject was asked to take a placebo, while on the second occasion the subject was asked to take d-glucarate. The subjects were not informed what they were taking on either occasion, or of the difference between the placebo and chemical compound.
On the first occasion the placebo was administered prior to alcohol ingestion, after alcohol ingestion then 8 hours following ingestion.
A BAC was used to determine the Blood alcohol level after consumption then 8 hours later.
(§3) On the second occasion 1000 mg of Potassium Hydrogen Glucarate was administered before alcohol consumption, then 500 mg after alcohol consumption, then 1000 mg 8 hours later.
A BAC test strip was used to determine the Blood alcohol level after consumption then 8 hours later.

hangover symptoms = assay: Subject questionnaire on hangover symptoms and overall feelings after alcohol consumption, glucarate versus placebo; format: in vivo, human; details: twenty subjects, questionnaire 12-14 hours after each occasion
From the text: as §1, §2, §3
Referring to FIG. 2, 12-14 hours after each occasion the subjects filled out the questionnaire to reflect each subject's observation of hangover symptoms. A 1 on the scale represents the most severe of symptoms, and a 5 represents neutral feeling or no symptom. The black circle indicates the average on the 20 subjects studied.
Referring to FIG. 3, the last parameter measured was the subjects overall feelings, a rating of 1 being the most unpleasant to a rating of 5 representing the most pleasant of each subject's typical feeling.

## O=C(O)[C@@H](O)[C@@H](O)[C@H](O)[C@@H](O)C(=O)[O-].[K+] [glucarate compound, Potassium Hydrogen Glucarate]
[1]; after rest and a duration of 8 hours, 1000 mg before and 500 mg after alcohol consumption
  decrease in the total level of recirculating alcohol relative to a placebo: 55%
[1]; immediately after alcohol consumption, 1000 mg before alcohol consumption, oral
  reduction in the amount of alcohol recirculating within the blood stream relative to a placebo: 18%
Hangover symptoms
  hangover symptoms and overall feelings, average index on scale 1-5: reduced the subjects' hangover tendencies
